Test system: CHO cell line (GAA LEC clone R3.3) expressing rh-GAA
Test: Phosphorylation efficiency of rh-GAA from cultures containing mannosidase inhibitors ([32P] incorporation by GlcNAc phosphotransferase)
Format: cell-based, Chinese Hamster
Settings: for [^32P] Phosphate Incorporation (cpm): conditioned media with 6 μg GAA; for effect on the phosphorylation reaction of rh-GAA: increasing amounts of inhibitor alone, versus GAA cultured without mannosidase inhibitors (FIG. 1)
Experimental: To determine whether mannosidase inhibitors can increase phosphorylation efficiency of recombinant human acid alpha glucosidase (rh-GAA), a CHO cell line (GAA LEC clone R3.3) expressing rh-GAA was grown in various conditions that contained different amounts of the following mannosidase the inhibitors: Kifunensin; Deoxymannojirimycin (DMJ); or combinations of both inhibitors. Conditioned media from each inhibitor condition containing 6 μg of GAA (based on GAA activity assay) was then incubated with purified bovine GlcNAc phosphotransferase (Pt'ase) and [^32P]UDP-GlcNAc. Subsequently, each phosphorylation reaction was loaded onto a concanavalin A-sepharose column to capture glycoproteins, e.g., rh-GAA. The concanavalin A-sepharose was washed and the resin was counted in a liquid scintillation counter to measure the ^32P incorporation, i.e., the extent of phosphorylation on rh-GAA. The results are summarized in Table 1 below and FIGS. 1 and 2.

Row | Compound | [^32P] Phosphate Incorporation (cpm) (0.5 mM inhibitor in culture) | [^32P] Phosphate Incorporation (cpm) (1.0 mM inhibitor in culture) | [^32P] Phosphate Incorporation (cpm) (1.75 mM inhibitor in culture) | [^32P] Phosphate Incorporation (cpm) (2.5 mM inhibitor in culture) | [^32P] Phosphate Incorporation (cpm) (5.0 mM inhibitor in culture) | effect on the phosphorylation reaction of rh-GAA | [^32P] Phosphate Incorporation (cpm) (0.5 μg/ml inhibitor in culture) | [^32P] Phosphate Incorporation (cpm) (1.0 μg/ml inhibitor in culture) | [^32P] Phosphate Incorporation (cpm) (2.5 μg/ml inhibitor in culture) | [^32P] Phosphate Incorporation (cpm) (5.0 μg/ml inhibitor in culture) | [^32P] Phosphate Incorporation (cpm) (10.0 μg/ml inhibitor in culture)
1 | OC[C@H]1NC[C@@H](O)[C@@H](O)[C@@H]1O [DMJ only, deoxymannojirimycin] | 3656 | 4500 | 4450 | 7258 | 6413 | greatly enhance |  |  |  |  | 
2 | O=C1N[C@@H]2[C@@H](O)[C@@H](O)[C@H](O)[C@@H](CO)N2C1=O [Kifunensin only, kifunensine] |  |  |  |  |  | greatly enhance | 6675 | 8585 | 7147 | 6717 | 7116
